Measurements published in patent US20120208848A1 (NEUROSYSTEC CORPORATION, priority 2005, published 2012).

Key:
Format in all cases: physicochemical
[1] = Chemical stability of gacyclidine acid and base forms (decomposition to piperidine); conditions: for decomposition rate: 54° C.; for time required for 10% loss of gacyclidine due to decomposition / rate of decomposition: acid form
Procedure: (§1) To monitor piperidine formation a Zorbax SB-CN column (25×0.46 cm, 5 μm; PN 880975, SN USS F01 3866) purchased from Agilent Technologies was maintained at 30° C. and eluted with a mixture composed of 50% Buffer A and 50% Buffer B at 150 μL/minute for 60 minutes. Buffer A was composed of water containing 0.1% trifluoroacetic acid and Buffer B was composed of acetonitrile containing 0.1% trifluoroacetic acid. The effluent from this column was interfaced with an AQA single quadrupole mass spectrometer (Thermo Electron) and a Surveyor PDA detector (UV monitor, Thermo Electron). The column effluent was monitored at 232 nm and scans were collected between 200 to 300 nm by use of the PDA detector. […] Piperidine was detected by the mass spectrometer at 16.0 minutes after injection onto the Zorbax SB-CN column (at m/z=86 only). Piperidine could not be detected by use of the PDA (UV monitor).
Both sets of samples were then incubated for various lengths of time at either 54 or 56° C.
At 5° C., the rate of decomposition was very slow and was difficult to measure, except by determining piperidine formation. The rate of decomposition at 5° C. was approximately 0.0001 day^−1, as determined by piperidine formation, or 0.000055 day^−1 as determined by extrapolation from the rates at higher temperature according to the Arrhenius relationship.

[2] = Effect of pH and polysorbate 80 on gacyclidine stability in Ringer's solution at 55° C.
Procedure: These samples were then incubated at 55° C. for 24 hours. […] The pH of each sample was determined at 55° C. by use of a pH meter standardized at 55° C. The pH meter, electrode and standards were the same as described in Example 3.

[3] = Gacyclidine remaining in solution as a function of pH and excipients, 37° C., polypropylene vials
Procedure: This same procedure was conducted at 37° C., and the samples were maintained in polypropylene vials (VWR # 20170-710, 2 mL vial).

[4] = Elution of gacyclidine from a suspension of the free base form
Procedure: The pH of these solutions was monitored by use of a pH meter, as described in Example 3. […] The average temperature of these solutions was 23° C. and varied between 21 and 25° C.

[5] = Solubility of gacyclidine as a function of pH and excipients, room temperature, glass vials
Procedure: Thereafter the mixture remained standing at room temperature for two days.
The pH of the mixture was determined by use of a SympHony glass calomel micro combination pH electrode obtained from VWR (Cat. No. 14002-776). Oakton standard reference solutions at pH 7.00±0.01 (25° C.; 7.02 at 20° C.), 4.01±0.01 (25° C.; 4.00 at 20° C.) and 10.00 (25° C.; 10.05 at 20° C.) were obtained from Cole-Parmer. These standard pH solutions were used to calibrate a Cole-Parmer Model 5996-60 analog pH meter equipped with a SympHony electrode to within 0.01 pH units of reference solutions.

[6] = Effect of pH on gacyclidine decomposition and solubility in Ringer's solution at 55° C.; conditions: 100 μM in Ringer's solution, 24 hours, pH 7.3 to 8.1, no excipient
Procedure: These samples were then incubated at 55° C. for 24 hours.
The pH of each sample was determined at 55° C. by use of a pH meter standardized at 55° C. The pH meter, electrode and standards were the same as described in Example 3.

[7] = Gacyclidine decomposition in Ringer's Lactate at 37° C.
Procedure: as §1
The pH of these Ringer's Lactate solutions was adjusted by addition of hydrochloric acid or sodium bicarbonate ([…]). […] To analyze these samples for gacyclidine and piperidine, the samples were first extracted with methylene chloride and then back-extracted into dilute hydrochloric acid. To the 0.40 mL sample to be analyzed were added 50 μL of 1.0 M sodium hydroxide and 0.8 mL of methylene chloride. After vigorous mixing, the aqueous and methylene chloride layers were allowed to separate. To 0.4 mL of the methylene chloride phase were added 20 μL of 1.0 M hydrochloric acid and 0.78 mL of water. After vigorous mixing, the aqueous and methylene chloride layers were allowed to separate and the aqueous layer was analyzed for gacyclidine and piperidine. This extraction procedure was necessary to remove the salt present in the sample for optimum detection of piperidine.

[8] = 0.1% SOLUTOL HS15, 37° C., polypropylene vials
[9] = 0.1% TWEEN 80, 37° C., polypropylene vials
[10] = Ringer's Lactate 133 μM NaHCO3, 1.10 days
[11] = Ringer's Lactate 133 μM NaHCO3, 1.54 days
[12] = Ringer's Lactate 133 μM NaHCO3, 5.79 days
[13] = Ringer's Lactate without pH adjustment, 1.10 days
[14] = Ringer's Lactate without pH adjustment, 1.54 days
[15] = Ringer's Lactate without pH adjustment, 5.79 days

Structure (SMILES): CC1CCCCC1(c1cccs1)N1CCCCC1.Cl (centres unmarked) [gacyclidine, 1-(2-methyl-1-thiophen-2-yl-cyclohexyl)-piperidine hydrochloride]
- decomposition rate ([1]; 1.0 mM gacyclidine in 10 mM hydrochloric acid (acid form)): 0.52 day⁻¹
- decomposition rate ([1]; 1.0 mM gacyclidine suspended in 1.5 mM sodium hydroxide (base form)): 0.0013 day⁻¹
- time required for 10% loss of gacyclidine due to decomposition ([1]; 5° C.): 3 years
- rate of decomposition ([1]; 5° C., determined by piperidine formation): approximately 0.0001 day^−1
- rate of decomposition ([1]; 5° C., extrapolation from rates at higher temperature (Arrhenius)): 0.000055 day⁻¹
- time required for 10% loss of gacyclidine due to decomposition ([1]; 23° C.): 53 days
- time required for 10% loss of gacyclidine due to decomposition ([1]; 37° C.): 3.8 days
- rate of decomposition ([1]; 55° C.): 0.73 day⁻¹
- time required for 10% loss of gacyclidine due to decomposition ([1]; 56° C.): 0.138 days
- piperidine formed from 100 μM gacyclidine ([2]; 0.3% polysorbate 80, Ringer's solution, 55° C., 24 hours, pH 6.7): 4.5 µM
- piperidine formed from 100 μM gacyclidine ([2]; 0.3% polysorbate 80, Ringer's solution, 55° C., 24 hours, pH 8.2): 0.92 µM
- loss of gacyclidine due to precipitation ([2]; 0.3% polysorbate 80, Ringer's solution, 55° C., 24 hours, various pH): no loss of gacyclidine due to precipitation
- decomposition rate as % of the acid form rate at 55° C. ([2]; 0.3% polysorbate 80, pH 6.7, 55° C.): 6.4%
- decomposition rate as % of the acid form rate at 55° C. ([2]; 0.3% polysorbate 80, pH 8.2, 55° C.): 1.3%
- solubility of the basic form with excipient ([3]; 0.1% CAPTISOL, 37° C., polypropylene containers): did not result in a clearly defined solubility
- gacyclidine retained in solution at high pH [3, 8]: ~32 μM
- gacyclidine retained in solution at high pH, % of total gacyclidine added [3, 8]: ~3.2%
- gacyclidine retained in solution at high pH [3, 9]: about 20 μM
- gacyclidine retained in solution at high pH, % of total gacyclidine added [3, 9]: ~2.0%
- solubility kinetic at 2 days ([3]; buffered aqueous solution, aqueous buffer, pH 9.2, 37° C., polypropylene vials, presence or absence of 0.1% SOLUPHOR P): ~1 µM
- gacyclidine remaining in solution, % of the total gacyclidine added ([3]; pH 9.2, 37° C., polypropylene vials, presence or absence of 0.1% SOLUPHOR P): ~0.1%
- gacyclidine ([4]; 2.8 mg free base in 20.0 mL Ringer's Lactate 133 μM NaHCO3, 23° C., 0.625 days): 20.7 µM
- gacyclidine ([4]; 2.8 mg free base in 20.0 mL Ringer's Lactate without pH adjustment, 23° C., 0.625 days): 56.4 µM
- pH of free base suspension ([4]; Ringer's Lactate 133 μM NaHCO3, 0.625 days): 7.54
- gacyclidine [4, 10]: 37.1 µM
- pH of free base suspension [4, 10]: 7.58
- gacyclidine [4, 11]: 46.2 ± 0.3 µM
- pH of free base suspension [4, 11]: 7.51
- gacyclidine [4, 12]: 76.3 ± 0.3 µM
- pH of free base suspension [4, 12]: 7.62
- gacyclidine ([4]; Ringer's Lactate 133 μM NaHCO3, 9.85 days): 77.2 ± 0.5 µM
- gacyclidine ([4]; Ringer's Lactate 133 μM NaHCO3, 12.9 days): 72.9 ± 1.1 µM
- gacyclidine ([4]; Ringer's Lactate 133 μM NaHCO3, 14.0 days): 75.7 ± 2.0 µM
- time to reach equilibrium concentration ([4]; Ringer's Lactate containing 0.13 mM sodium bicarbonate): ≤ 10 days
- equilibrium concentration as % of the total amount of gacyclidine base added ([4]; Ringer's Lactate with added sodium bicarbonate): ~14%
- equilibrium concentration as % of the total amount of gacyclidine base added ([4]; Ringer's Lactate without added sodium bicarbonate): about 30%
- pH of free base suspension ([4]; Ringer's Lactate without pH adjustment, 0.625 days): 7.66
- gacyclidine [4, 13]: 79.8 µM
- pH of free base suspension [4, 13]: 7.44
- gacyclidine [4, 14]: 88.3 ± 2.4 µM
- pH of free base suspension [4, 14]: 7.46
- gacyclidine [4, 15]: 124.4 ± 14.5 µM
- pH of free base suspension [4, 15]: 7.38
- gacyclidine ([4]; Ringer's Lactate without pH adjustment, 9.85 days): 152.4 ± 0.7 µM
- gacyclidine ([4]; Ringer's Lactate without pH adjustment, 12.9 days): 162.2 ± 1.4 µM
- gacyclidine ([4]; Ringer's Lactate without pH adjustment, 14.0 days): 157.9 ± 3.6 µM
- time to reach equilibrium concentration ([4]; Ringer's Lactate without sodium bicarbonate): ≤ 10 days
- maximum concentration achieved at equilibrium ([4]; solid gacyclidine base, starting pH near physiologic pH): about 75 μM
- gacyclidine remaining in solution at high pH ([5]; 0.1% CAPTISOL, 1 mM added, room temperature, two days, glass): about 14 μM
- gacyclidine remaining in solution at high pH ([5]; 0.1% SOLUTOL HS15, 1 mM added, room temperature, two days, glass): ~96 μM
- gacyclidine remaining in solution at high pH ([5]; 0.1% TWEEN 80, 1 mM added, room temperature, two days, glass): ~42 μM
- gacyclidine base maintained in solution per gram of carrier molecule ([5]; CAPTISOL, room temperature): 0.004 grams per gram of carrier mole
- gacyclidine base maintained in solution per gram of carrier molecule ([5]; SOLUTOL HS 15, room temperature): 0.02 grams per gram of carrier mole
- gacyclidine base maintained in solution per gram of carrier molecule ([5]; TWEEN 80, room temperature): 0.01 grams per gram of carrier mole
- solubility kinetic at 2 days ([5]; buffered aqueous solution, aqueous buffer, kinetic from dmso stock, pH 9.7, 1 mM added, room temperature, two days, glass, presence or absence of 0.1% SOLUPHOR P): 2.6 µM
- pH above which precipitation of gacyclidine was observed ([5]; hydrochloride salt diluted to 1 mM in buffered aqueous solution): > 7
- gacyclidine remaining in solution, % of the added gacyclidine ([5]; pH 9.7, 1 mM added, room temperature, two days, glass, presence or absence of 0.1% SOLUPHOR P): 0.26%
- solubility ([5]; thermodynamic from solid, hydrochloride salt, water, read-out: final concentration giving a clear solution in water): ≥ 550000 µM
- loss of gacyclidine from solution [6]: loss of gacyclidine both by decomposition and by precipitation from solution
- pKa ([7]; Ringer's Lactate solution, 37° C., from decomposition rates, read-out: apparent pKA): 7.6
- Time for 10% Loss (37° C., Ringer's Lactate) ([7]; pH 5.5, 100 μM gacyclidine): 3.7 ± 0.1 days
- Time for 10% Loss (37° C., Ringer's Lactate) ([7]; pH 6.0, 100 μM gacyclidine): 3.82 ± 0.03 days
- Time for 10% Loss (37° C., Ringer's Lactate) ([7]; pH 7.4, 100 μM gacyclidine): 6.1 ± 0.4 days
- decomposition rate as % of the rate expected for the acid form ([7]; pH 7.4, 37° C., Ringer's Lactate): 62%
- fraction of gacyclidine in the acid form ([7]; pH 7.4 and 37° C.): 62%
